# Source: patent US9844556B2, “Preventive/therapeutic method and preventive/therapeutic agent for complications after cataract surgery” (KOWA COMPANY, LTD., priority 2015, dated 2017)
# Tests used:
# HLEpiC [1] = assay: Determination of G-actin/F-actin ratio using G-Actin/F-Actin In Vivo Assay Kit; type: cell-based, human; details: about an hour, control 1.16
# Experimental: HLEpiC was diluted with a medium (Epithelial Cell Medium), and dispensed to a Poly-L-lysine coated T-75 flask at about 5000 cells/cm^2, and cultured in a carbon dioxide incubator (37° C., 5% CO2) until about 50% confluent. A test substance, a positive control or the medium (control) at each concentration given below was added to each flask at 20 mL.
# (§1) Test substance: Ripasudil with a concentration of […], 100 μM or 1 mM,
# Positive control: CD with a concentration of 2 μM, and
# These were treated in a carbon dioxide incubator (37° C., 5% CO2) for about an hour.
# To 20 mL of Lysis and F-actin stabilization buffer was added 200 μL of 100 mM ATP stock solution and 200 μL of 100× Protease inhibitor cocktail stock to produce LAS2 buffer, and this was incubated in a carbon dioxide incubator (37° C.) for about 30 minutes. Warmed LAS2 buffer was added at 2.5 mL to each flask in which the medium was removed with vacuum suction.
# Next, adherent HLEpiC was completely scraped with a cell scraper and transferred with the LAS2 buffer to a conical tube, and HLEpiC was crushed with a micropipette (hereinafter, referred to as cell solution). This cell solution was incubated in a carbon dioxide incubator (37° C.) for about 10 minutes and then centrifuged for 10 minutes (2000 rpm, room temperature). The supernatant was dispensed into an ultracentrifugal tube at 1.8 mL and centrifuged for an hour with an ultracentrifuge (100,000× g, 37° C.). At this time, F-actin is precipitated and G-actin remains in the supernatant.
# The supernatant was transferred to a conical tube while being careful not to suck F-actin precipitates.
# To precipitates of each sample was added 1.8 mL of F-actin depolymerizing buffer, and this was incubated under ice-cold conditions for an hour to depolymerize actin.
# From each supernatant sample and precipitate sample, 100 μL each was put in a 1.5 mL Eppendorf tube, and 25 μL of 5×SDS sample buffer was added and stirred.
# Each sample was boiled in a boiling water bath for 5 minutes.
# Each sample was subjected to SDS-polyacrylamide gel electrophoresis, followed by Western blotting.
# Next, after treatment using a Western blotting detection reagent (ECL Select Western Blotting Detection Reagent, GE Healthcare Japan), proteins were detected using a Lumino image analyzer. The quantities of G-actin and F-actin were determined using an analysis software (ImageQuant TL, GE Healthcare Japan) and the G-actin/F-actin ratio was calculated.
# The variation in the quantity of F-actin required to form actin stress fibers was evaluated by comparison with the G-actin/F-actin ratio of untreated (Control) cells.
# HLEpiC [2] = assay: Inhibitory action on cell migration (Oris Cell Migration plate); type: cell-based, human; details: about 24 and 48 hours after treatment
# Experimental: HLEpiC was diluted with a medium (Epithelial Cell Medium) and dispensed to Poly-L-lysine coated Oris™ Cell Migration 96 well plate, to which a stopper was firmly attached, at 50 μL/well (25000 cells/well) and cultured in a carbon dioxide incubator (37° C., 5% CO2) for 24 hours. The stopper was removed, and after brief washing with the medium, a solution obtained by adding 5 μL of 10 mM Cell Tracker Green Fluorescent Probe (Lonza Walkersville, Inc.) to 4995 μL of the medium was added at 100 μL/well, and the cells were stained in a carbon dioxide incubator (37° C., 5% CO2) for about 30 minutes. After brief washing with the medium, the medium was further added and the cells were cultured in a carbon dioxide incubator (37° C., 5% CO2) for about 30 minutes.
# After brief washing with the medium, a test substance, a positive control, a comparative control or the medium (control) at each concentration given below was added at 100 μL/well.
# as §1
# Positive control: CD with a concentration of 2 μM,
# These were cultured in a carbon dioxide incubator (37° C., 5% CO2). The state of HLEpiC in the Detection Zone in each sample was observed by a confocal laser scanning microscope about 24 hours after the treatment and 48 hours after the treatment.
# [3] = tested on: Human lens epithelial cells (SRA01/04); assay: Action on DNA synthesis capability (BrdU uptake) of human lens epithelial cell line; type: cell-based; details: 24 hours
# Experimental: Human lens epithelial cells (SRA01/04 (Riken Cell Bank)) were cultured using 20% FBS-DMEM medium under conditions of 37° C. and 5% CO2. The concentration of SRA01/04 was adjusted using 2% FBS-DMEM, and the cells were seeded in a 96 Well Plate at 100 μL/well (5000 cells/well) and cultured under conditions of 37° C. and 5% CO2 for 24 hours. The medium was exchanged with 5% FBS-DMEM medium, and TGFβ at 10 ng/mL (final concentration) or Ripasudil at 10, 30 or 100 μM (final concentration) was added to each well, and the cells were cultured for another 24 hours. The uptake rate of 5-bromo-2′-deoxyuridine (BrdU) in the cells was measured using Cell Proliferation ELISA, BrdU (colorimetric) kit (Roche) at a measurement wavelength of 450 nm by Multiskan MS version 8.0 (LABSYSTEMS), and cell proliferation properties were evaluated.
# [4] = tested on: HT-1080 cell-containing collagen gel; assay: Inhibitory action on collagen gel contraction; type: cell-based; parameters: key: +: a contraction level was almost equal to that of a group to which Ripasudil was not added; ++: contraction was inhibited; +++: contraction was significantly inhibited; details: HT1080 collagen gel, two or three days
# Experimental: HT-1080 cell suspension adjusted to a density of 150000 to 200000 cells/mL with a medium (medium: E'MEM (Sigma)/10% FBS/NEAA/PCSM), and a solution, obtained by mixing A, B and C solutions (A solution: Cellmatrix (Collagen Type I 3 mg/mL), B solution: concentrated culture solution, 10×MEM Hank's culture solution, and C solution: buffer solution for reconstitution) of collagen gel culture kit (Nitta Gelatin Inc.) mixed at a ratio of 8:1:1 and cooling the obtained mixture, were mixed at a ratio of 1.4:1, and the obtained mixture was seeded in a 48 Well Plate at 500 μL/well and gelatinized in a CO2 incubator to produce a cell-containing collagen gel. After gelation, 1 mL of the medium in which Ripasudil was adjusted to 0.1 μM, 1 μM or 10 μM was added on the gel, and an injection needle was inserted between the gel and the wall surface to release the gel from the wall surface, and the gel was incubated to stand in a CO2 incubator. After two or three days, the contraction of the gel was observed, and photos were taken to evaluate the actions of Ripasudil.
smiles,measurement,setting,value
"C[C@H]1CNCCCN1S(=O)(=O)c1cccc2cncc(F)c12 [Ripasudil, 4-fluoro-5-{[(2S)-2-methyl-1,4-diazepan-1-yl]sulfonyl}isoquinoline]",G-actin/F-actin ratio,HLEpiC [1]; 10 μM,1.91
same,G-actin/F-actin ratio,HLEpiC [1]; 100 μM,4.55
same,G-actin/F-actin ratio,HLEpiC [1]; 1 mM,24.87
same,cell migration into Detection Zone (observation),HLEpiC [2]; 100 μM,tendency of inhibition of cell migration
same,cell migration into Detection Zone (observation),HLEpiC [2]; 1 mM,definite inhibitory action on cell migration
same,DNA synthesis capability (BrdU uptake) of SRA01/04,[3]; 30 μM,statistically significant decrease
same,DNA synthesis capability (BrdU uptake) of SRA01/04,"[3]; 10, 30 or 100 μM",dose-dependent inhibitory action
same,Inhibition of contraction,[4]; Ripasudil 0.1 μM,+
same,Inhibition of contraction,[4]; Ripasudil 1.0 μM,++
same,Inhibition of contraction,[4]; Ripasudil 10.0 μM,+++
